Results reported in patent US20100161239A1, “QU[…]” (VICRO BVBA, priority 2003, published 2010).

Legend:
HIV virus strains 1-4 = assay: Measured phenotype (pFR = -log fold resistance), censored values, genotype/phenotype dataset; assay type: cell-based; conditions: pFR = -log(FR)
Experimental: (§1) For the purposes of the invention, the mutations identified should be associated with resistance or susceptibility to drug therapy, for example an antiretroviral drug. The degree to which a particular mutation pattern may affect resistance may be determined by one of skill in the art, for example, using the phenotypic resistance monitoring assay such as, the ANTIVIROGRAM® (Virco, Belgium) (see WO97/27480). In this methodology, resistance is determined with respect to a laboratory reference strain HIVLAI/IIIB. The difference in IC50 (the concentration of drug required to reduce the virus' growth in cell culture by 50%) between the patient sample and the reference viral strain is determined as a quotient. This fold change in IC50 is reported and indicative of the resistance profile of a certain drug. Based on the changes in IC50, cut-off values have been established to distinguish a sample from being sensitive or resistant to a certain drug.
The phenotypes are presented as pFR values, where pFR is equal to −log(FR), where FR denotes the Fold Resistance. Negative pFR values thus denote resistance and positive values denote hyper-susceptibility. For example, a pFR value of −1.0 is equal to 10-fold resistance.
The used dataset consists of a set of matching genotype/phenotype measurements with possible multiple phenotype measurements per genotype. The mutations are defined relative to HXB2 at amino acid level. The phenotypes are presented as pFR values, which is equal to −log(FR), where FR denotes the Fold Resistance.
In this example, the method developed by the inventors to deal with censored values was applied for the drug amprenavir. Firstly, a linear regression model without censored values was calculated, see the values ‘APV_pFR’ for iteration 0 in the Tables 18-21 below. The phenotypic measured value is <−2.083062017 for Virus strain 1, for the first iteration, the value V0 is equal to the measured phenotype value APV_pFR, but the censor is considered as ‘=’. This was followed by iteration nr. 1. Once the values were obtained from iteration 1, the inventors compared the prediction value P, e.g. for Virus strain 1, −2.362076895 with the phenotypic measured value <−2.083062017. For virus strains 1, 2 and 3 below, the measured values have a censor ‘<’. For virus strains 4, the measured value has a censor ‘>’. The scenarios established by the inventors, when the case was ‘<’-censor, and when the case was ‘>’-censor, were applied. New linear regression models were calculated and for the censored values in the linear regression model, either the data-points from the training set were removed, as for virus strains 1, 2 and for virus strain 4 (iteration 2 and 3 only), or those data-points were used instead of the censored phenotypes measurement, as illustrated for virus strain 3 and for virus strain 4 (only iteration 1). The procedure was reiterated until the prediction converged.

one HIV-1 sample = assay: Phenotypic antiviral experiment (as described in WO97/27480), fold change in IC50/EC50 relative to reference wild-type virus; assay type: cell-based; conditions: fold change in IC50 or EC50 relative to reference wild-type virus
Experimental: as §1
The results were expressed in FR, or fold change in IC50 or EC50, relative to reference wild-type virus, which is the drug concentration at which 50% of the enzyme activity is inhibited, and is expressed in μM units. The FR cutoffs values for normal susceptible ranges were 8, 10, and 6, for nevirapine, delavirdine, and efavirenz, respectively.
The phenotypic antiviral experiment was taken as the gold-standard by the inventors. Said phenotypic antiviral experiment was performed as described in WO97/27480.

`CC(C)CN(C[C@@H](O)[C@H](Cc1ccccc1)NC(=O)O[C@H]1CCOC1)S(=O)(=O)c1ccc(N)cc1` [APV, amprenavir] was tested, and the “APV_pFR (phenotypic measured value)” value (HIV virus strains 1-4; Virus strain 1, censor '<') was under −2.083, the “APV_pFR (phenotypic measured value)” value (HIV virus strains 1-4; Virus strain 1, censor '<', listed as amprenavir) was under −2.083 and the “APV_pFR (phenotypic measured value)” value (HIV virus strains 1-4; Virus strain 2, censor '<') was under −1.909. For the same compound, the “APV_pFR (phenotypic measured value)” value (HIV virus strains 1-4; Virus strain 3, censor '<') was under −1.957 and the “APV_pFR (phenotypic measured value)” value (HIV virus strains 1-4; Virus strain 4, censor '>') was over 0.5154.
For `Cc1ccnc2c1NC(=O)c1cccnc1N2C1CC1` [Nevirapine], the “FR (phenotypic antiviral experiment)” value (one HIV-1 sample) was over 89.
In the case of `CC(C)Nc1cccnc1N1CCN(C(=O)c2cc3cc(NS(C)(=O)=O)ccc3[nH]2)CC1` [delavirdine], the “FR (phenotypic antiviral experiment)” value (one HIV-1 sample) is reported as 3.7.
For `O=C1Nc2ccc(Cl)cc2[C@@](C#CC2CC2)(C(F)(F)F)O1` [efavirenz], the “FR (phenotypic antiviral experiment)” value (one HIV-1 sample) was 17.5.
